Among the data in patent US8198279B2, “Pyrido[2,3-b]pyrazin-8-substituted compounds and their use” (Institute of Cancer Research: Royal Cancer Hospital (The), priority 2007, dated 2012) are IC50 and GI50 values, retold here.

Each structure is given as a SMILES string.

For one test, the target named is T1, B-RAF (Homo sapiens, UniProt P15056, V600E).
T1 construct: made in house
Kind of test: DELFIA Kinase Assay. Particulars: 100 μM ATP, GST-MEK substrate. It counts as biochemical. In outline:
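Recombinant B-RAF (V600E) with GST-MEK substrate was preincubated with compound for 10 min at room temperature, then reacted with 100 μM ATP for 45 min on milk-preblocked wells, with antibody detection by DELFIA europium fluorescence. Response is taken as % of DMSO control after empty-vector blank subtraction; IC50 is from a variable-slope sigmoidal fit, mean of usually three independent runs.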

The test system of the next test is pERK. Kind of test: Cell Based Phospho-ERK Assay. Particulars: 6 h, 6 hours incubation with test compound. As for the experimental part: Biological Methods—Cell Based Phosho-ERK Assay
Compounds were assessed using a cell-based assay which was performed according to the following protocol.
Plate out 16,000 cells/well in 99 μL medium in a 96-well plate.
• 1. Add 1 μL inhibitor to the cells (total […] solution). • 2. Incubate the cells with test compound for 6 hours at 37° C. • 3. Aspirate off the solution from all of the wells. • 4. Fixate the cells with 100 μL 4% formaldehyde/0.25% Triton X-100 PBS per well. • 5. Incubate the plate for 1 hour at 4° C. • 6. Aspirate off the fixing solution and add 300 μL TBS per well. • 7. Leave the plate overnight at 4° C. Day 2: • 1. Wash the plate 2× with 200 μL PBS per well. • 2. Block with 100 μL 5% dried milk in TBS. • 3. Incubate the plate for 20 minutes at 37° C. • 4. Wash the plate 2× with 0.1% tween/H2O. • 5. Add 50 μL of 3 μg/mL primary antibody pERK (Sigma M8159), diluted in 5% milk powder/TBS, to each well. • 6. Incubate the plate for 2 hours at 37° C. • 7. Wash the plate 3× with 0.1% tween/H2O. • 8. Add 50 μL of 0.45 μg/mL secondary Europium-labelled anti-mouse antibody (Perkin Elmer) to each well. • 9. Incubate the plate for 1 hour at 37° C. • 10. Wash the plate 3× with 0.1% tween/H2O. • 11. Add 100 μL enhancement solution (Perkin Elmer) to each well. • 12. Leave the plate for approximately 10 minutes at room temperature before gently shaking the plate. • 13. Read Europium Time Resolved Fluorescence in Victor2. • 14. Wash the plate 2× with 0.1% tween/H2O. • 15. Measure the protein concentration with BCA (Sigma) by adding 200 μL of solution per well. • 16. Incubate the plate for 30 minutes at 37° C. • 17. Read absorbance levels at 570 nm in a plate reader.
Note that Europium counts are normalised for protein levels by dividing counts by absorbance.
Values for the blank (no cells) are subtracted from all values. The DMSO controls are set as 100% activity and assay points (the response) are calculated as a percentage of the DMSO control. Data are plotted using Graphpad Prism software and a non-linear regression line is calculated using a variable slope sigmoidal dose-response equation (Y=Bottom+(Top−Bottom)/(1+10^((LogEC50−X)*HillSlope)) where X is the logarithm of concentration. Y is the response). The IC50 generated by this procedure is the concentration of the drug that produces a percentage control fluorescence value midway between the saturation, and zero-effect plateaus. Three independent assays are usually performed and the mean IC50 is reported.

Another test deals with WM266.4 melanoma cells. As to the kind of experiment: SRB Cell Proliferation Assay (SRB GI50). The settings on record: Homo sapiens, WM 266-4, 144 h, 6 days growth. Format: cell-based. On the procedure: Biological Methods —SRB Cell Proliferation Assay (SRB GI50)
Cultures of WM266.4 melanoma cells are routinely cultured in DMEM/10% foetal bovine serum, at 37° C., in 5% CO2 water saturated atmosphere. Cultures are maintained in exponential growth phase by sub-culturing before having become confluent (3-5 day intervals). Single cell suspensions are prepared by harvesting an 80 cm^2 tissue culture flask with 5 mL commercial trypsin EDTA. After 5 minutes, the detached cells are mixed with 5 mL fully complemented culture medium and centrifugally pelleted (1000 rpm for 7 minutes). After aspirating the supernatant, the cell pellet is re-suspended in 10 mL fresh medium and the cells fully disaggregated by drawing the whole volume up/down 5 times through a 19-gauge needle. The concentration of the cells is determined using a haemocytometer (1/10 dilution). A suitable volume to give at least a 2-fold excess for the number of tests being conducted, typically 100-200 mL, is prepared by diluting the cell suspension to 10,000/mL, and 100 μL/well dispensed into 96 well plates using a programmable 8-channel peristaltic pump, giving 1000 cells/well, leaving column 12 blank. The plates are returned to the incubator for 24 hours to allow the cells to re-attach.
The compounds being tested are prepared at 20 mM in dimethylsulphoxide. Aliquots (200 μL) are diluted into 20 mL culture medium giving 200 μM, and 10 serial dilutions of 3× performed by transferring 5 mL to 10 mL. Aliquots (100 μL) of each dilution are added to the wells, using an 8-channel pipettor, thus performing a final further 2× dilution, and giving doses ranging from 100 μM to 0.005 μM. Column 11 receives plain culture medium only. Each compound is tested in quadruplicate, each replicate being the average of four wells, and two plates per compound.
After a further 6 days growth, the plates are emptied, and the cells are fixed in 10% trichloroacteic acid for 10 minutes on ice. After thorough rinsing in running tap water, the plates are dried, and stained by adding 50 μL of a solution of 0.1% sulphorhodamine-B in 1% acetic acid, for 10 minutes at room temperature. The stain is poured out and the plates thoroughly rinsed under a stream of 1% acetic acid, thus removing unbound stain, and dried. The bound stain is taken into solution by addition of 150 μL Tris buffer pH 8, followed by 10 minutes on a plate-shaker (approximately 500 rpm). The absorbance at 540 nm in each well (being proportional to the number of cells present) is determined using a plate reader.
After averaging the results in rows A-D and E-H, the blank value (row 12) is subtracted, and results expressed as percentage of the untreated value (row 11). […] The GI50 generated by this procedure is the concentration of the drug that produces a percentage control A540 midway between the saturation, and zero-effect plateaus.

T1 sequence (P15056 whole entry V600E): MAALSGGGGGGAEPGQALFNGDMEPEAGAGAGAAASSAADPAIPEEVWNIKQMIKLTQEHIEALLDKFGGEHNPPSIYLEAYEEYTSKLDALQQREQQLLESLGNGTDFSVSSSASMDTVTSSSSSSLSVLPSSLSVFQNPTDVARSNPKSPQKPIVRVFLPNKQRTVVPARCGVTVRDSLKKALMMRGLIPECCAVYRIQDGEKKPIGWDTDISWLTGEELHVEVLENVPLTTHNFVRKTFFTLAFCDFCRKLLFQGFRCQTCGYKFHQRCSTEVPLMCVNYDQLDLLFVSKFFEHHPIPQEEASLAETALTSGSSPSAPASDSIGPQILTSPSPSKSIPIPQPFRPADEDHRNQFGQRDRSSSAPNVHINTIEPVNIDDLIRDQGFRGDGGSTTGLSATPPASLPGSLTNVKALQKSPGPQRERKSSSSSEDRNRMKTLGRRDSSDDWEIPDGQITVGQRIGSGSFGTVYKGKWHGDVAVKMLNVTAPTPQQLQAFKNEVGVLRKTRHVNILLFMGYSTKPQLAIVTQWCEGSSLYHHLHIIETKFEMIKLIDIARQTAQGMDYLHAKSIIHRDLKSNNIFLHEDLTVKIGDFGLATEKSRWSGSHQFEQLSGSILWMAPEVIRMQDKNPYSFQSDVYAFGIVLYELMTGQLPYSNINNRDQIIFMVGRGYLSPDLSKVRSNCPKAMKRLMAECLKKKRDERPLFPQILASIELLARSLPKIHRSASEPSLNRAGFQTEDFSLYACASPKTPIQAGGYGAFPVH

For the compound `CSc1cc(Oc2ccnc3[nH]c(=O)c(C)nc23)ccc1NC(=O)Nc1cc(C(F)(F)F)ccc1F` [AA-060, 1-(2-fluoro-5-(trifluoromethyl)phenyl)-3-(4-(2-methyl-3-oxo-3,4-dihydropyrido[2,3-b]pyrazin-8-yloxy)-2-(methylthio)phenyl)urea], the IC50 against B-RAF is below 0.1 µM; in the test with pERK it was below 1 µM. The compound further showed a GI50 with WM266.4 melanoma cells below 1 µM.

Regarding `Cc1ccc(-n2nc(C(C)(C)C)cc2NC(=O)Nc2ccc(Oc3ccnc4[nH]c(=O)cnc34)cc2F)cn1` [AA-084, 1-(3-tert-butyl-1-(6-methylpyridin-3-yl)-1H-pyrazol-5-yl)-3-(2-fluoro-4-(3-oxo-3,4-dihydropyrido[3,2-b]pyrazin-8-yloxy)phenyl)urea], the IC50 against B-RAF was 0.1 to 1 µM; in the test with pERK, below 1 µM. The same compound returned a GI50 with WM266.4 melanoma cells below 1 µM.

With `CSc1cc(Oc2ccnc3[nH]c(=O)cnc23)ccc1NC(=O)Nc1cc(C(C)(C)C)nn1-c1ccccc1` [AA-067, 1-(3-tert-butyl-1-phenyl-1H-pyrazol-5-yl)-3-(2-(methylthio)-4-(3-oxo-3,4-dihydropyrido[2,3-b]pyrazin-8-yloxy)phenyl)urea], the IC50 was below 0.1 µM on B-RAF and below 1 µM in the test with pERK. In the test with WM266.4 melanoma cells, this compound displayed a GI50 below 1 µM.

Regarding `COc1ccc(-n2nc(C(C)(C)C)cc2NC(=O)Nc2ccc(Oc3ccnc4[nH]c(=O)c(C)nc34)cc2SC)cn1` [AA-064, 1-(3-tert-butyl-1-(6-methoxypyridin-3-yl)-1H-pyrazol-5-yl)-3-(4-(2-methyl-3-oxo-3,4-dihydropyrido[2,3-b]pyrazin-8-yloxy)-2-(methylthio)phenyl)urea], the IC50 is below 0.1 µM on B-RAF and below 1 µM with pERK. The GI50 in the test with WM266.4 melanoma cells was below 1 µM.

For `CC(C)(C)c1cc(NC(=O)Nc2cccc(Oc3ccnc4ncc(=O)[nH]c34)c2)n(-c2ccccc2)n1` [AA-076, 1-(3-tert-butyl-1-phenyl-1H-pyrazol-5-yl)-3-(3-(2-oxo-1,2-dihydropyrido[2,3-b]pyrazin-8-yloxy)phenyl)urea], the concentration for half-maximal inhibition (IC50) lay in the range of 0.1 to 1 µM against B-RAF and 1 to 10 µM in the test with pERK. The compound further registered a GI50 with WM266.4 melanoma cells of 1 to 10 µM.

Take `Nc1nc2nccc(Oc3ccc(NC(=O)Nc4cc(C(F)(F)F)ccc4F)c4ccccc34)c2[nH]c1=O` [AA-079, 1-(4-(3-amino-2-oxo-1,2-dihydropyrido[2,3-b]pyrazin-8-yloxy)naphthalen-1-yl)-3-(2-fluoro-5-(trifluoromethyl)phenyl)urea]: the IC50 on B-RAF is below 0.1 µM; with pERK, below 1 µM. The compound also registered a GI50 in the test with WM266.4 melanoma cells below 1 µM.

In the case of `CSc1cc(Oc2ccnc3[nH]c(=O)c(C)nc23)ccc1NC(=O)Nc1cc(C(C)(C)C)nn1-c1ccc(C)cc1` [AA-061, 1-(3-tert-butyl-1-p-tolyl-1H-pyrazol-5-yl)-3-(4-(2-methyl-3-oxo-3,4-dihydropyrido[2,3-b]pyrazin-8-yloxy)-2-(methylthio)phenyl)urea], the IC50 against B-RAF is below 0.1 µM; in the test on pERK it was below 1 µM. This compound also yielded a GI50 in the test on WM266.4 melanoma cells below 1 µM.

Compound `CC(C)(C)c1cc(NC(=O)Nc2ccc(Oc3ccnc4[nH]c(=O)cnc34)cc2F)n(CC2CCC2)n1` [AA-099, 1-(3-Tert-butyl-1-(cyclobutylmethyl)-1H-pyrazol-5-yl)-3-(2-fluoro-4-(3-oxo-3,4-dihydropyrido[3,2-b]pyrazin-8-yloxy)phenyl)urea] gave an IC50 with pERK below 1 µM. The GI50 in the test on WM266.4 melanoma cells was 1 to 10 µM.

As to `CN(C)c1cnc2c(Oc3ccc(NC(=O)Nc4cc(C(C)(C)C)nn4-c4ccccc4)c(F)c3)ccnc2n1` [AA-070, 1-(3-Tert-butyl-1-phenyl-1H-pyrazol-5-yl)-3-(4-(3-(dimethylamino)pyrido[3,2-b]pyrazin-8-yloxy)-2-fluorophenyl)urea], the IC50 with pERK was in the range of 1 to 10 µM. The compound also had a GI50 with WM266.4 melanoma cells of 1 to 10 µM.

The compound `Cc1ccc(-n2nc(C(C)(C)C)cc2NC(=O)Nc2ccc(Oc3ccnc4nc(N5CCOCC5)cnc34)cc2F)cc1` [AA-073, 1-(3-tert-butyl-1-p-tolyl-1H-pyrazol-5-yl)-3-(2-fluoro-4-(3-morpholinopyrido[3,2-b]pyrazin-8-yloxy)phenyl)urea] displayed an IC50 in the test with pERK below 1 µM. This compound yielded a GI50 in the test with WM266.4 melanoma cells below 1 µM.
